In the supplement of paper PMC10307832:

Experiments:
Test in all cases: relative viability (nuclei count vs DMSO), 5 days (fraction); higher = more cells survive
Sulindac + Pemetrexed = compound: CC1=C(CC(=O)O)c2cc(F)ccc2/C1=C\c1ccc([S+](C)[O-])cc1 [Sulindac] + Nc1nc2[nH]cc(CCc3ccc(C(=O)N[C@@H](CCC(=O)O)C(=O)O)cc3)c2c(=O)[nH]1 [Pemetrexed] (partner 0.2 µM)
In short: (§1)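 Lung cancer cell lines were pin-tool dosed in 1536-well plates on the day after seeding, with either a lone drug or a fixed anchor-drug dose plus five library-drug doses (not always all listed) in √10 steps. Nuclei were counted on 4× images after 5 days. Relative viability is the ratio of treated-well to vehicle-well nuclei counts, with each value a median of duplicate plates.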

Staurosporine + AZD7762 = compound: CN[C@@H]1C[C@H]2O[C@@](C)([C@@H]1OC)n1c3ccccc3c3c4c(c5c6ccccc6n2c5c31)C(=O)NC4 [Staurosporine] + NC(=O)Nc1cc(-c2cccc(F)c2)sc1C(=O)N[C@H]1CCCNC1 [AZD7762] (partner 0.2 µM)
In short: as §1

[1] = compound: O=c1[nH]cc(F)c(=O)[nH]1 [5-Fluorouracil] + COc1cc2c(Oc3ccc(NC(=O)C4(C(=O)Nc5ccc(F)cc5)CC4)cc3F)ccnc2cc1OCCCN1CCOCC1 [Foretinib] (partner 0.25 µM)
In short: as §1

[2] = compound: O=c1[nH]cc(F)c(=O)[nH]1 [5-Fluorouracil] + Cc1nc(Nc2ncc(C(=O)Nc3c(C)cccc3Cl)s2)cc(N2CCN(CCO)CC2)n1 [Dasatinib] (partner 0.075 µM)
In short: as §1

Row | Cell Line | relative viability (Sulindac + Pemetrexed; first compound 0.08 µM) | relative viability (Sulindac + Pemetrexed; first compound 0.253 µM) | relative viability (Sulindac + Pemetrexed; first compound 0.8 µM) | relative viability (Sulindac + Pemetrexed; first compound 2.53 µM) | relative viability (Sulindac + Pemetrexed; first compound 8 µM) | relative viability (Staurosporine + AZD7762; first compound 0.05 µM) | relative viability (Staurosporine + AZD7762; first compound 0.5 µM) | relative viability ([1]; first compound 0.02 µM) | relative viability ([1]; first compound 0.2 µM) | relative viability ([1]; first compound 0.6325 µM) | relative viability ([1]; first compound 2 µM) | relative viability ([2]; first compound 0.02 µM) | relative viability ([2]; first compound 0.2 µM) | relative viability ([2]; first compound 0.6325 µM) | relative viability ([2]; first compound 2 µM) | relative viability (Staurosporine + AZD7762; first compound 0.005 µM) | relative viability (Staurosporine + AZD7762; first compound 0.01581 µM) | relative viability (Staurosporine + AZD7762; first compound 0.1581 µM)
1 | NCI-H3122 | 0.203 | 0.194 | 0.207 | 0.176 | 0.214 | 0.678 | 0.192 | 0.956 | 0.721 | 0.363 | 0.218 | 0.917 | 0.76 | 0.32 | 0.205 | – | – | –
2 | NCI-H2126 | 0.774 | 0.68 | 0.658 | 0.692 | 0.699 | 0.673 | 0.27 | 1.32 | 0.592 | 0.399 | 0.361 | 0.552 | 0.315 | 0.244 | 0.212 | 0.914 | 0.622 | 0.268
3 | NCI-H596 | 0.441 | 0.433 | – | 0.445 | 0.544 | 0.471 | 0.303 | 0.76 | 0.794 | 0.572 | 0.488 | 0.717 | 0.605 | 0.48 | 0.366 | 1.08 | 0.769 | 0.28
4 | LOU-NH91 | 0.305 | 0.358 | 0.413 | 0.423 | 0.374 | 0.395 | 0.247 | 0.966 | 0.995 | 0.731 | 0.315 | 0.566 | 0.598 | 0.501 | 0.304 | 0.555 | 0.341 | 0.254
5 | NCI-H1651 | 0.766 | 0.626 | 0.581 | 0.569 | 0.613 | 0.295 | 0.195 | 0.797 | 0.835 | 0.537 | 0.509 | 0.438 | 0.363 | 0.276 | 0.401 | 0.522 | 0.352 | 0.219
